# Experimental data reported in patent publication US11806359B2 (priority 2020, dated 2023).
# What was measured:
# [1] = test system: DENV2 (08-10381 Montserrat strain); assay: CPE-based antiviral assay, DENV2, neutral red readout (Example 14); format: cell-based, Dengue virus; details: 7 days post infection
# Description: A CPE-based antiviral assay was performed by infecting target cells in the presence or absence of test compositions, at a range of concentrations. […] cytopathic effects and cell death. […] For CPE-based assays, cell viability was determined with a neutral red readout. Viable cells incorporate neutral red in their lysosomes. Uptake of neutral red relies on the ability of live cells to maintain a lower pH inside their lysosomes than in the cytoplasm, and this active process requires ATP. Once inside the lysosome, the neutral red dye becomes charged and is retained intracellularly. […] The amount of neutral red in solution was quantified by reading the absorbance (optical density) of each well at 490 nm […]
# Cytotoxic effects were evaluated in uninfected cells by comparing viability in the presence of inhibitors to the viability of mock-treated cells. Cytotoxicity was determined by an XTT viability assay, which was conducted at the same timepoint as the readout for the corresponding infection assay.
# Test compositions were dissolved in 100% methanol. […] When possible, the EC50 and CC50 of the composition was determined for each assay using GraphPad Prism software. […]
# Protection of DENV2-induced cytopathic effect (CPE) with Neutral Red readout: For the DENV2 antiviral assay, the 08-10381 Montserrat strain was used. […]
# [2] = test system: HTLV-1; assay: Infectivity of HTLV-1 particles from treated SLB1 cells on primary huPBMCs, p19Gag ELISA; format: cell-based, human T-cell leukemia virus type-1; details: even the lowest concentration (10 μg/ml); relative to vehicle control
# [3] = test system: SARS-CoV-2; assay: SARS-CoV-2 genome equivalents in supernatant by qRT-PCR (Example 39); format: cell-based; details: 24 hours-post infection, four highest doses
# Description: The Vero 81 cells described above were subjected to genome analysis determine whether the inhibition of SARS-CoV-2 was at the level of total or infectious particle production. RNA was extracted from the cell culture supernatants of the prophylactic study, and genomic equivalents were quantified via qRT-PCR (Example 39). The prophylactic effect of oleandrin, initially observed via infectious assay, was confirmed at the level of genome equivalents. […]
# To quantify genome copies for the samples, 200 μl of sample was extracted with a 5:1 volume ratio of TRIzol LS (Ambion, Carlsbad, Calif.), utilizing standard manufacturers protocols and resuspending in 11 μl water. Extracted RNA were tested for SARS-CoV-2 by qRT-PCR following a previously published assay (26). Briefly, the N gene was amplified using the following primers and probe: forward primer [5′-[…]-3′] (SEQ ID NO. 1); reverse primer [5′-[…]-3′] (SEQ ID NO. 2); and probe [5′-FAM-[…]-TAMRA-3′; (SEQ ID NO. 3)]. […]
# [4] = test system: SARS-CoV-2; assay: SARS-CoV-2 treatment post-infection in VERO CCL-81 cells, viral titer (Example 34); format: cell-based; details: treated at 12 h and 24 h post-infection, no pretreatment
# [5] = test system: Vero-E6 cells; details: African green monkey
# [6] = test system: VERO CCL-81 cells
smiles,measurement,setting,value
CO[C@H]1C[C@H](O[C@H]2CC[C@@]3(C)[C@H](CC[C@@H]4[C@@H]3CC[C@]3(C)[C@@H](C5=CC(=O)OC5)[C@@H](OC(C)=O)C[C@]43O)C2)O[C@@H](C)[C@@H]1O [oleandrin],efficacy against Dengue virus,[1],demonstrates efficacy
same,infectivity of newly-synthesized p19Gag-containing virus particles,[2],inhibited the infectivity
same,SARS-CoV-2 genomes in the supernatant,[3],significantly decreased
same,antiviral activity post infection with a single treatment,[4],able to exert antiviral activity
same,concentration at which cellular toxicity appeared,[5],≥ 1000 ng/mL
same,Vero cells remaining viable,[5]; 24 h,about 80%
same,cellular toxicity,[6],no cellular toxicity was observed
